Reference: ChEMBL document CHEMBL1201862, “PubChem BioAssay data set” (2004)
Activity calls are given as the source filed them.

Assays:
Cytochrome P450 3A4 = Cytochrome P450 3A4 (Homo sapiens, UniProt P08684); conditions: Potency;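 further: confirmatory qHTS run detecting inhibitors and substrates of CYP3A4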
[1] = A cytotoxicity screen of small molecule inhibitors of the PhoP region in Salmonella typhi identified in the primary screen. [Related pubchem assays: 1850, 1864, 1985 ]; format: functional
[2] = target: Disintegrin and metalloproteinase domain-containing protein 17 (Homo sapiens, UniProt P78536); experiment: exosite inhibitors of ADAM17, dose response, biochemical (AID 743260)
Disintegrin and metalloproteinase domain-containing protein 17, sequence (P78536 whole entry, the tested form may be a part): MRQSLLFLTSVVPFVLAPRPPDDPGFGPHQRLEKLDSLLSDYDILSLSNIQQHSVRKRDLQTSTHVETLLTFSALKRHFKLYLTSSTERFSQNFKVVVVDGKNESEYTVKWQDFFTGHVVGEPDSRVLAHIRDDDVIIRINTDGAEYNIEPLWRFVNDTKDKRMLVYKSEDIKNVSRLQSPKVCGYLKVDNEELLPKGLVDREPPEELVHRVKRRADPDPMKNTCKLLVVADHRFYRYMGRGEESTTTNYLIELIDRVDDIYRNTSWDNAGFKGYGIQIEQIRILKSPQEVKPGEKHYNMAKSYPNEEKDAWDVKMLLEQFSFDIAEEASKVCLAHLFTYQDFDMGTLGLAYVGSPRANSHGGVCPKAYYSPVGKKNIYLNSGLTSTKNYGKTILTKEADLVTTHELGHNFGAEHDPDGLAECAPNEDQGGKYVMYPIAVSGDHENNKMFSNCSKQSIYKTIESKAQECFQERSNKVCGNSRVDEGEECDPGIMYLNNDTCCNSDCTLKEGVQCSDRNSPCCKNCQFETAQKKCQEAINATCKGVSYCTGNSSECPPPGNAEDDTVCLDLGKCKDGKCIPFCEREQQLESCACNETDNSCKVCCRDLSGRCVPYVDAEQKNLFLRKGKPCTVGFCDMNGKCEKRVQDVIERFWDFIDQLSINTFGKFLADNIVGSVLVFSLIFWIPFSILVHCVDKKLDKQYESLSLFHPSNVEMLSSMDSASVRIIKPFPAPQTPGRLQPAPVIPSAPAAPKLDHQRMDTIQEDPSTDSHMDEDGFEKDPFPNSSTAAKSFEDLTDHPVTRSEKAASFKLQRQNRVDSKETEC

[3] = ADAM10 protease inhibitors, dose response, selectivity assay for ADAM17 exosite inhibitor project, biochemical, FRET peptide substrate, recombinant human ADAM10 (AID 743259);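 further: ADAM10 enzyme cleaving a FRET peptide substrate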
[4] = HEp-2 cell cytotoxicity, dose response, cytotoxicity control for RSV inhibitor project, HTS (AID 2410); format: functional; conditions: human respiratory syncytial virus
[5] = M. tuberculosis H37Rv growth inhibitors, H37Rv strain (AID 1626); format: functional
Protein skinhead-1 = target: T1, Protein skinhead-1 (Caenorhabditis elegans, UniProt P34707); format: functional
T1 sequence (P34707 whole entry): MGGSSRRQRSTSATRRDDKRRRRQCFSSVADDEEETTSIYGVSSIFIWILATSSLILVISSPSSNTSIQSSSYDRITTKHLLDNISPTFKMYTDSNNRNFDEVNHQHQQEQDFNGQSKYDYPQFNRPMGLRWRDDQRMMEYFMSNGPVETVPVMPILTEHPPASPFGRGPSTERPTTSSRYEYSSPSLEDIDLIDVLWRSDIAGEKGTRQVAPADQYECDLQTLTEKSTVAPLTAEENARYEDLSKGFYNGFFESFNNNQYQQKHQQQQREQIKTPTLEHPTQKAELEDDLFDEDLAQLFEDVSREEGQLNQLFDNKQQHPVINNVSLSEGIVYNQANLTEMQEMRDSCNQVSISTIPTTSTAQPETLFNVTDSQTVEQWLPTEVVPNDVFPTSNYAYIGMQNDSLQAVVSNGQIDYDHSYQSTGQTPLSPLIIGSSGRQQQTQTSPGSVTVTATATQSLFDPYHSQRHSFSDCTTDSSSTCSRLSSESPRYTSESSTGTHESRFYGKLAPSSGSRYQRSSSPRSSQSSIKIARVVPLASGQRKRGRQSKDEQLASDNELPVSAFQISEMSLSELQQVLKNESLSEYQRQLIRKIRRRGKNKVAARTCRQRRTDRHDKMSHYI

[6] = cytotoxicity toward DRD oncogenic fibroblasts, dose response, cell-based, non-viral oncogenic, luminescence (AID 1934); format: functional; conditions: Homo sapiens
Vero = experiment: cells; format: functional; conditions: Chlorocebus sabaeus
BJ [7] = experiment: cytotoxicity toward BJ-TERT fibroblasts, dose response, cell-based, RAS-independent, luminescence (AID 1933); format: functional; conditions: Homo sapiens
BJ [8] = experiment: cytotoxicity toward BJ-TERT-LT-ST fibroblasts, dose response, cell-based, RAS-independent, luminescence (AID 1935); format: functional; conditions: Homo sapiens;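 further: BJ fibroblasts immortalized with TERT plus LT and ST oncogenes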
[9] = Luminescence Cell-Based Dose Retest to Confirm Inhibitors of Cancer Stem Cells. [Related pubchem assays (depositor defined):AID2717, AID2721]; format: functional; conditions: Homo sapiens
BJ [10] = experiment: cells; format: functional, cell-based; conditions: Homo sapiens
BJ [11] = experiment: cytotoxicity toward Ras-transformed BJeLR fibroblasts, dose response, cell-based, alamar blue fluorescence, cherrypicked samples (AID 2631); format: functional; conditions: Homo sapiens;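 further: confirmatory dose-response assay in RAS-dependent BJ fibroblasts engineered with TERT, LT and ST, with cytotoxicity read by fluorescence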
Estrogen receptor beta = Estrogen receptor beta (Homo sapiens, UniProt Q92731); experiment: ERβ–SRC-3 coactivator interaction inhibitors, confirmation, orthogonal assay, biochemical, ELISA, streptavidin-HRP readout (AID 1060)
Estrogen receptor beta, sequence (Q92731 whole entry): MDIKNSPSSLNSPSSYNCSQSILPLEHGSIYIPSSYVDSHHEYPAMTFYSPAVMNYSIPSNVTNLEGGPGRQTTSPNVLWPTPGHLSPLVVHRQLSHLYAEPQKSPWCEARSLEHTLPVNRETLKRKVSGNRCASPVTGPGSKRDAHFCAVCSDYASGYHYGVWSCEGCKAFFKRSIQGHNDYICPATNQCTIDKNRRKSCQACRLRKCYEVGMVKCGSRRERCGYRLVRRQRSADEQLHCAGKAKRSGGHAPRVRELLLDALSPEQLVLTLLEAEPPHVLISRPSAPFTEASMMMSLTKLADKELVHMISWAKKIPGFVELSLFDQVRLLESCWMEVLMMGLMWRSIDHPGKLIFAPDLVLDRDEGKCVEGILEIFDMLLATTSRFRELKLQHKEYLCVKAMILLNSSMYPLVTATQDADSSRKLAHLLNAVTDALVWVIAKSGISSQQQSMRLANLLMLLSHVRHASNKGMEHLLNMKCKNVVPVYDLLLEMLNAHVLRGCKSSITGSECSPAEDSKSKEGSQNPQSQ

[12] = inhibitors of intracellular T. cruzi replication, confirmation, NIH3T3 host cells, beta-gal luminescence (AID 2044); format: functional, cell-based;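 further: intracellular parasites grown in NIH/3T3 mouse fibroblasts as host cells; luminescent beta-galactosidase reporter signal from transgenic T. cruzi replicating inside host cells; inhibitors lower the luminescence signal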
[13] = cytotoxicity toward NIH3T3 fibroblasts, dose response, counter-screen, cell-based, ATP luminescence, mouse fibroblasts (AID 2010); format: functional;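 further: cells exposed to compound for about 90 hours before reading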
Prothrombin = Prothrombin (Homo sapiens, UniProt P00734); experiment: Thrombin 1536 HTS Dose Response Confirmation. [Related pubchem assays: 1046 (Thrombin 1536 HTS; hits were confirmed in this assay)]; format: functional
[14] = target: T2, DNA repair protein RAD52 homolog (Homo sapiens, UniProt P43351); format: functional, biochemical
T2 sequence (P43351 whole entry): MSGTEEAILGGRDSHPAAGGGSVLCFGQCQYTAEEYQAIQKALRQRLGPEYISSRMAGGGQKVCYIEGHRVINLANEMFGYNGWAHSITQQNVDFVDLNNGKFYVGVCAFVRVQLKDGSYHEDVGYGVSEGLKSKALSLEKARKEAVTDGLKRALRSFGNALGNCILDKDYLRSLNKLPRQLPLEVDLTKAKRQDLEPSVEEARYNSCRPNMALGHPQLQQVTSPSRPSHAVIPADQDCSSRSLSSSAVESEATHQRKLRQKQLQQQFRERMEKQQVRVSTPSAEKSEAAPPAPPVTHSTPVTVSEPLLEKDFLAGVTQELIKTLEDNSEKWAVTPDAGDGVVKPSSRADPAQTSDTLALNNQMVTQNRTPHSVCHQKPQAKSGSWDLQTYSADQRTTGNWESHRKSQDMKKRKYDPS

[15] = target: DNA dC->dU-editing enzyme APOBEC-3G (Homo sapiens, UniProt Q9HC16); experiment: Dose Response confirmation of small molecule APOBEC3G DNA Deaminase Inhibitors via a fluorescence-based single-stranded DNA deaminase assay. [Related pubchem assays (depositor defined):AID493012, AID493028]; format: functional
DNA dC->dU-editing enzyme APOBEC-3G, sequence (Q9HC16 whole entry): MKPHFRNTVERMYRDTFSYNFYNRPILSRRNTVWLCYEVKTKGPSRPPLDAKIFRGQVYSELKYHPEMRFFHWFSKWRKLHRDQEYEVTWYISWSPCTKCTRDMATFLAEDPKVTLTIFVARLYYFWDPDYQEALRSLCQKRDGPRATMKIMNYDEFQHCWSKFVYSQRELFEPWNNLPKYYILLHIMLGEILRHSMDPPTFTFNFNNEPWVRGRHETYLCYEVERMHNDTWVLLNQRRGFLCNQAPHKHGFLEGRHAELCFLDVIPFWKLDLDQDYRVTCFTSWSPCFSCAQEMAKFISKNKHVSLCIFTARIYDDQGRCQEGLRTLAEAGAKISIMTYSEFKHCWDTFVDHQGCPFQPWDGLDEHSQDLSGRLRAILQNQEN

[16] = target: DNA dC->dU-editing enzyme APOBEC-3A (Homo sapiens, UniProt P31941); experiment: APOBEC3A DNA deaminase inhibitors, dose response, biochemical (AID 504722); format: functional
DNA dC->dU-editing enzyme APOBEC-3A, sequence (P31941 whole entry): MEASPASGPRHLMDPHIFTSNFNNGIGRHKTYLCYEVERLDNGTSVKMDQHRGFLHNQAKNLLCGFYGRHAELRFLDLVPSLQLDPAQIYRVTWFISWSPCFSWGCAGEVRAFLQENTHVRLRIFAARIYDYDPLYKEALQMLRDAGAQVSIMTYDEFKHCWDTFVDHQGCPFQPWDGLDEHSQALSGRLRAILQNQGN

Large T antigen = Large T antigen (Simian virus 40, UniProt P03070); format: functional, Betapolyomavirus macacae;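 further: Confirmatory-stage PubChem screen for compounds that inhibit SV40 T antigen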
Large T antigen, sequence (P03070 whole entry): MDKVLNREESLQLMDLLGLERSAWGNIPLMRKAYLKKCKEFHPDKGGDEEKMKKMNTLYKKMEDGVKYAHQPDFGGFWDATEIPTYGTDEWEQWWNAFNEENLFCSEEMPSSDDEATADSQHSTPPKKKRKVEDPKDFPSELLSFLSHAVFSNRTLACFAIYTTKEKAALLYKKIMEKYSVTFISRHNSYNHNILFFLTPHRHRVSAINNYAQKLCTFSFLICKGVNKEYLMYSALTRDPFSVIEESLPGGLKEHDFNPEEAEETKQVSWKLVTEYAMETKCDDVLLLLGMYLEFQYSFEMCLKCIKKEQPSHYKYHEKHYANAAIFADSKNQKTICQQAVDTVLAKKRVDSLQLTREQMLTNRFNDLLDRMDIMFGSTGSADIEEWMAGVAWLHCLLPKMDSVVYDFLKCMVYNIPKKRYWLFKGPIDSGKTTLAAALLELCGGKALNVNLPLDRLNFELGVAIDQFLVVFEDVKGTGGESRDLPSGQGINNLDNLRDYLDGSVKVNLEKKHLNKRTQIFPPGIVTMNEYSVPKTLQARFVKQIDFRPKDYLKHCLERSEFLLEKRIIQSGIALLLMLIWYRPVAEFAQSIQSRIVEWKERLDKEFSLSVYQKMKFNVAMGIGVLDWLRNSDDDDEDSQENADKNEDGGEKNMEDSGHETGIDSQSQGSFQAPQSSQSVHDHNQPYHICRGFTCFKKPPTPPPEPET

Coagulation factor XII = target: T3, Coagulation factor XII (Homo sapiens, UniProt P00748); format: functional;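 further: activated factor XIIa alpha cleaving a fluorogenic AMC peptide substrate; inhibitor potency from loss of enzyme activity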
T3 sequence (P00748 whole entry): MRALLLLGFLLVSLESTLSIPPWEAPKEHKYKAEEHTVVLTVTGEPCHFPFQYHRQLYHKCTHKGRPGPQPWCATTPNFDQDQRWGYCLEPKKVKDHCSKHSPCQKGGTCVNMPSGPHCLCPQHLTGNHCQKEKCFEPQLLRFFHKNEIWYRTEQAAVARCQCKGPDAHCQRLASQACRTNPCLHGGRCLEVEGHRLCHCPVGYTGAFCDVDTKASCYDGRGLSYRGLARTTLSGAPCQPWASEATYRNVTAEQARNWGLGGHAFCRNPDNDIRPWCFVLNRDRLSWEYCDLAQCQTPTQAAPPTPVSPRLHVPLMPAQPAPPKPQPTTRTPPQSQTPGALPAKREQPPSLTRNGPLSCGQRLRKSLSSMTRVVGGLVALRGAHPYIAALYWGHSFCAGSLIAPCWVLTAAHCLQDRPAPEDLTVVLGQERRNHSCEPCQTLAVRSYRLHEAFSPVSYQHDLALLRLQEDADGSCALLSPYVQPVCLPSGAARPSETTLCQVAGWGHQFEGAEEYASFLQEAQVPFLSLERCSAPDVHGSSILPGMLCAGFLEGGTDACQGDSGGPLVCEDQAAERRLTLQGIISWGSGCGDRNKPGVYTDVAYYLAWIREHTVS

[17] = P. falciparum 3D7-ScDHODH growth inhibitors, dose response, SYBR Green, dry powder samples (AID 1159570); format: functional, cell-based;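 further: parasite growth measured after 72 hours of compound exposure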
[18] = P. falciparum Dd2 growth inhibitors, dose response, SYBR Green, cherry-picked samples (AID 1159567); format: functional, cell-based
[19] = P. falciparum Dd2 growth inhibitors, dose response, SYBR Green, dry powder samples (AID 1159566); format: functional, cell-based;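 further: potency for growth inhibition with lower SYBR green DNA signal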
[20] = P. falciparum ATP4 D1247Y mutant growth inhibitors, dose response, NITD609-resistant line, SYBR Green, dry powder (AID 1159571); format: functional, cell-based;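 further: parasites synchronized at ring stage by sorbitol before testing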

Cytochrome P450 3A4, sequence (P08684 whole entry): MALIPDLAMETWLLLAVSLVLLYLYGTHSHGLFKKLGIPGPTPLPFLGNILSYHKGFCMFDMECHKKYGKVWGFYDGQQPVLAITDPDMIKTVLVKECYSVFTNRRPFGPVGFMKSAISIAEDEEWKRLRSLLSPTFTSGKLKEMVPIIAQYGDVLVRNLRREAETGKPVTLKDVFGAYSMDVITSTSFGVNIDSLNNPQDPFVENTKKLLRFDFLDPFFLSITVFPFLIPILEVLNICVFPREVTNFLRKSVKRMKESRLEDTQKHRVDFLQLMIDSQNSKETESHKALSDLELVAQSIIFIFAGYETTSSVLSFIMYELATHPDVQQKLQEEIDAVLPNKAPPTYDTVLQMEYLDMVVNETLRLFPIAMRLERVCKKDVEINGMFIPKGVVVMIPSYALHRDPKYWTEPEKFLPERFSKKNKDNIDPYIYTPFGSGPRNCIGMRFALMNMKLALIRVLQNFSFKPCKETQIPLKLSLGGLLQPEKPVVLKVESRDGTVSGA

Which AC50 (Cytochrome P450 3A4) does the source give for `Cc1cc(=O)cc2oc3cc(N)c(-c4c(C)cc(O)cc4O)c(C)c3nc1-2` here?
The AC50 was 39.8 µM (inconclusive).

With `Cc1cccc(N(C(=O)CCC(=O)Nc2ccccn2)C(C(=O)NC(C)C)c2ccc(O)cc2)c1` (configuration not stated) as the molecule, how does the EC50 [1] read?
The EC50 was > 50 µM (active).

With `Cc1cc(=O)oc2c(CN(C)Cc3ccccc3)c(O)ccc12` as the molecule, how does the EC50 [1] read?
Its EC50 is > 50 µM (active).

Which IC50 [2] does the source give for `Cc1cc(Oc2ccccc2)nc(SCC(=O)Nc2ccc(Cl)c(Cl)c2)n1` here?
Its IC50 is > 69.5 µM (inactive).

And the IC50 [3]?
The IC50 was 10.4 µM (inactive).

With `COC(=O)[C@@H]1C[C@@H]2CC[C@@H](O)C[C@@H]2N1Cc1ccc(C(F)(F)F)cc1` as the molecule, how does the AC50 (Cytochrome P450 3A4) read?
Its AC50 is 10 µM (inconclusive).

Which results are given for `CC(C)OC(=O)c1ccc(NC(=O)c2cncc(Br)c2)cc1`?
CC50 [4]: > 50 µM (active); IC50 [5]: > 100 µM (active)

Which IC50 [3] does the source give for `COc1cc(OC)cc(-c2c[nH]nc2N)c1` here?
The IC50 was > 69.5 µM (inactive).

For `COc1cc(OC)cc(-c2cn[nH]c2N)c1`, which IC50 [2] is on record?
Its IC50 is > 69.5 µM (inactive).

Which results are given for `COc1ccccc1C1CN(c2ccc(F)cc2F)N=C1c1cccs1` (configuration not stated)?
EC50 [1]: > 50 µM (active); IC50 (Protein skinhead-1): > 100 µM (inactive)

For `CCCN1C/C(=C/c2ccc3c(c2)OCO3)C(=O)/C(=C/c2ccc3c(c2)OCO3)C1`, which EC50 [6] is on record?
The EC50 was 4.99 µM (active).

What about the CC50 (Vero) of the same molecule?
Its CC50 is 9.59 µM (active).

What about the EC50 (BJ [7]) of the same molecule?
Its EC50 is 4.04 µM (inconclusive).

What about the EC50 (BJ [8]) of the same molecule?
Its EC50 is 2.94 µM (inconclusive).

What about the AC50 [9] of the same molecule?
Its AC50 is 0.766 µM (active).

And the IC50 [2]?
The IC50 was 19.6 µM (inactive).

And the EC50 (BJ [10])?
Its EC50 is 14.9 µM (inconclusive).

And the IC50 [3]?
Its IC50 is > 69.5 µM (inactive).

What about the EC50 (BJ [11]) of the same molecule?
Its EC50 is 0.582 µM (inconclusive).

With `CC1(C)C(=O)Nc2ccccc2N1C(=O)COc1ccc(S(=O)(=O)N2CCOCC2)cc1Cl` as the molecule, how does the IC50 (Estrogen receptor beta) read?
Its IC50 is < 0.023 µM (not active).

For `Cc1cccc(C(=N)NOC(=O)N2CCOCC2)c1`, which EC50 [12] is on record?
Its EC50 is 2.63 µM (active).

What about the IC50 [2] of the same molecule?
Its IC50 is > 69.5 µM (inactive).

What about the IC50 [3] of the same molecule?
Its IC50 is > 69.5 µM (inactive).

What about the EC50 [13] of the same molecule?
The EC50 was > 60 µM (not active).

For `COc1cccc2cc(C(=O)NCC3CCCO3)c(=O)oc12` (configuration not stated), which IC50 (Prothrombin) is on record?
Its IC50 is > 50 µM (not active).

With `Cc1cc[n+](CC(=O)c2ccc(NC(=O)c3ccccc3)cc2)cc1` as the molecule, how does the EC50 [1] read?
Its EC50 is > 50 µM (active).

With `CCCCc1nc2ccccc2c(NC(=O)CNC(C)(C)C)c1CCC` as the molecule, how does the IC50 (Prothrombin) read?
The IC50 was > 50 µM (not active).

With `CN(C)CCCn1c(=S)[nH]c2sc3c(c2c1=O)CCCC3` as the molecule, how does the AC50 [9] read?
The AC50 was > 195 µM (inactive).

What about the AC50 [14] of the same molecule?
Its AC50 is 5.83 µM (active).

What does the source list for `COc1ccc(/C=N/n2c(S)nnc2-c2cc(C)[nH]n2)cc1`?
IC50 [15]: 3.83 µM (active); IC50 [16]: > 100 µM (inactive)

Which IC50 (Large T antigen) does the source give for `CC(/C=N/n1c(S)nnc1-c1ccncc1)=C\c1ccco1` here?
The IC50 was 45 µM (active).

What about the IC50 [15] of the same molecule?
The IC50 was 2.71 µM (active).

What about the IC50 [16] of the same molecule?
The IC50 was > 100 µM (inactive).

For `CN1C(=O)/C(=N/OC(=O)c2ccccc2)c2ccccc21`, which IC50 (Coagulation factor XII) is on record?
The IC50 was 4.93 µM (active).

What about the IC50 (Prothrombin) of the same molecule?
The IC50 was 5.05 µM (active).

Which IC50 [5] does the source give for `CC(/C=C(\O)c1ccc(C)o1)=N\c1ccc2c(c1)OCO2` here?
Its IC50 is > 100 µM (active).

With `O=C(c1ccc(F)cc1)N1CC(=O)N2[C@H](C1)[C@@H](c1ccc(-c3cccnc3)cc1)[C@@H]2CO` as the molecule, how does the AC50 [17] read?
Its AC50 is 0.786 µM (active).

What about the AC50 [18] of the same molecule?
Its AC50 is 0.439 µM (active).

And the AC50 [19]?
The AC50 was 0.42 µM (active).

What about the AC50 [20] of the same molecule?
The AC50 was 0.542 µM (active).

For `COc1ccc(/N=C2\C(=O)Nc3ccccc32)cc1`, which IC50 [5] is on record?
Its IC50 is > 100 µM (active).

With `CSc1nc(-c2ccco2)nn1C(=O)c1ccccc1` as the molecule, how does the IC50 (Prothrombin) read?
The IC50 was 0.082 µM (active).

With `CCOC(=O)c1cn[nH]c1N` as the molecule, how does the IC50 [5] read?
Its IC50 is > 100 µM (active).

With `COc1ccc(-c2coc3c(O)c(OC)ccc3c2=O)cc1` [RETUSIN 7-METHYL ETHER] as the molecule, how does the AC50 (Cytochrome P450 3A4) read?
Its AC50 is 31.6 µM (inconclusive).
